Results published in ChEMBL document CHEMBL1136825, “Synthesis and biological evaluation of 4-deacetoxy-1,7-dideoxy azetidine paclitaxel analogues” (2003).

Columns and labels:
Assay type in all cases: functional, Homo sapiens
A549 = experiment: Concentration required for 50% inhibition of proliferation of lung cancer cell line, A549 with respect to paclitaxel was tested in vitro after 72 hr of incubation
MCF7 = experiment: Concentration required for 50% inhibition of proliferation of breast cancer cell line, MCF-7 with respect to paclitaxel was tested in vitro after 72 hr of incubation
SK-OV-3 = experiment: Concentration required for 50% inhibition of proliferation of ovarian cancer cell line, SKOV3 with respect to paclitexal was tested in vitro after 72 hr of incubation

## CC(=O)O[C@H]1[C@@H]2[C@@H]3CN[C@@H]3CC[C@@]2(C)[C@@H](OC(C)=O)[C@H](OC(C)=O)C2=C(C)[C@@H](OC(=O)[C@H](O)[C@@H](NC(=O)c3ccccc3)c3ccccc3)C[C@@H]1C2(C)C
A549
  Ratio: 4.5
MCF7
  Ratio: 4.9
SK-OV-3
  Ratio: 4.6

## CC(=O)O[C@H]1[C@@H]2[C@@H]3CN(C(=O)C(F)(F)F)[C@@H]3CC[C@@]2(C)[C@@H](OC(C)=O)[C@H](OC(C)=O)C2=C(C)[C@@H](OC(=O)[C@H](O)[C@@H](NC(=O)c3ccccc3)c3ccccc3)C[C@@H]1C2(C)C
A549
  Ratio: 3.2
MCF7
  Ratio: 3.8
SK-OV-3
  Ratio: 4.7

## CC(=O)O[C@H]1[C@@H]2[C@@H]3CN(C(C)=O)[C@@H]3CC[C@@]2(C)[C@@H](OC(C)=O)[C@H](OC(C)=O)C2=C(C)[C@@H](OC(=O)[C@H](O)[C@@H](NC(=O)c3ccccc3)c3ccccc3)C[C@@H]1C2(C)C
A549
  Ratio: 2.9
MCF7
  Ratio: 3.6
SK-OV-3
  Ratio: 5.8

## COc1ccc(OC2O[C@@H](C(=O)O[C@H]3C[C@H]4[C@@H](OC(C)=O)[C@@H]5[C@@H]6CN[C@@H]6CC[C@@]5(C)[C@@H](OC(C)=O)[C@H](OC(C)=O)C(=C3C)C4(C)C)[C@H](c3ccccc3)N2C(=O)c2ccccc2)cc1 (stereo partly drawn)
A549
  Ratio: 6.8
MCF7
  Ratio: 8.6
SK-OV-3
  Ratio: 9.3

## COc1ccc(OC2O[C@@H](C(=O)O[C@H]3C[C@H]4[C@@H](OC(C)=O)[C@@H]5[C@@H]6CN(C(C)=O)[C@@H]6CC[C@@]5(C)[C@@H](OC(C)=O)[C@H](OC(C)=O)C(=C3C)C4(C)C)[C@H](c3ccccc3)N2C(=O)c2ccccc2)cc1 (stereo partly drawn)
A549
  Ratio: 6.9
MCF7
  Ratio: 9.3
SK-OV-3
  Ratio: 10.2

## CC(=O)O[C@H]1C(=O)[C@@]2(C)[C@H]([C@H](OC(=O)c3ccccc3)[C@]3(O)C[C@H](OC(=O)[C@H](O)[C@@H](NC(=O)c4ccccc4)c4ccccc4)C(C)=C1C3(C)C)[C@]1(OC(C)=O)CO[C@@H]1C[C@@H]2O [PACLITAXEL]
A549
  Ratio: 1
MCF7
  Ratio: 1
SK-OV-3
  Ratio: 1
